Data reported in ChEMBL document CHEMBL1201862, “PubChem BioAssay data set” (2004).
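Briefly, cells in 96-well plates were exposed to five compound concentrations for 48 h, and endpoints were estimated by linear interpolation. GI50 marks 50% less growth.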 Active and inactive are the calls of the source. No stated cut-off is given here; in the data, active = GI50 up to about 1.1 µM and inactive = higher.

What was measured:
Experiment in all cases: NCI tumour cell line growth inhibition, 48 h
ACHN = tested on: ACHN
KM12 = tested on: KM12
LOX IMVI = tested on: LOX IMVI
IGROV-1 = tested on: IGROV-1
DU-145 = tested on: DU-145
Hs-578T = tested on: Hs-578T
PC-3 = tested on: PC-3
SK-MEL-28 = tested on: SK-MEL-28
EKVX = tested on: EKVX
CCRF-CEM = tested on: CCRF-CEM
MCF7 = tested on: MCF7
MOLT-4 = tested on: MOLT-4
UACC-257 = tested on: UACC-257
SK-OV-3 = tested on: SK-OV-3
SR = tested on: SR
HT-29 = tested on: HT-29
OVCAR-8 = tested on: OVCAR-8
RXF 393 = tested on: RXF 393
NCI/ADR-RES = tested on: NCI/ADR-RES
BT-549 = tested on: BT-549

Measured: GI50

CC(=O)Nc1oc(C)nc1C#N
inactive: ACHN > 100 µM | KM12 > 100 µM | LOX IMVI > 100 µM | IGROV-1 > 100 µM | DU-145 > 100 µM | Hs-578T > 100 µM | PC-3 > 100 µM | SK-MEL-28 > 100 µM | EKVX > 100 µM | CCRF-CEM > 100 µM | MCF7 > 100 µM | MOLT-4 > 100 µM | UACC-257 > 100 µM | SK-OV-3 > 100 µM | SR > 100 µM | HT-29 > 100 µM | OVCAR-8 > 100 µM | RXF 393 > 100 µM

Cc1ccc(Nc2nc3c(=O)n(C)c(=O)n(C)c3nc2Nc2ccc(C)cc2)cc1
inactive: ACHN 3.46 µM | KM12 16.4 µM | LOX IMVI 10.1 µM | IGROV-1 15 µM | DU-145 32.4 µM | Hs-578T 25.8 µM | PC-3 14.7 µM | SK-MEL-28 16.7 µM | NCI/ADR-RES 17.2 µM | EKVX 16 µM | CCRF-CEM 2.3 µM | MOLT-4 14.8 µM | UACC-257 15.7 µM | SK-OV-3 21.9 µM | SR 5.38 µM | HT-29 10.4 µM | OVCAR-8 13.6 µM | RXF 393 10.3 µM

O=C1OCC2(CO1)CC1C=CC2C1 (centres undefined)
inactive: ACHN > 100 µM | KM12 > 100 µM | LOX IMVI > 100 µM | IGROV-1 > 100 µM | DU-145 > 100 µM | Hs-578T > 100 µM | PC-3 > 100 µM | SK-MEL-28 > 100 µM | NCI/ADR-RES > 100 µM | EKVX > 100 µM | MCF7 > 100 µM | MOLT-4 > 100 µM | UACC-257 > 100 µM | SK-OV-3 > 100 µM | SR > 100 µM | HT-29 > 100 µM | RXF 393 > 100 µM

CC12OC3(C(O)C1O)C(C(=O)O[C@H]3CO[Si](C)(C)C(C)(C)C)C2S(=O)(=O)c1ccccc1 (some centres undefined)
inactive: ACHN 48.1 µM | KM12 33.3 µM | LOX IMVI 18.7 µM | IGROV-1 21 µM | DU-145 > 100 µM | Hs-578T 30 µM | PC-3 26.9 µM | SK-MEL-28 56 µM | NCI/ADR-RES 11.9 µM | EKVX 46.9 µM | MCF7 36.1 µM | MOLT-4 23.6 µM | UACC-257 25.8 µM | SK-OV-3 > 100 µM | SR 41.9 µM | HT-29 33.3 µM | OVCAR-8 29.9 µM

O/N=C\c1c(O)ccc2ccccc12
inactive: ACHN 24.8 µM | KM12 42.3 µM | LOX IMVI 45.8 µM | Hs-578T > 100 µM | PC-3 88.3 µM | SK-MEL-28 47.2 µM | NCI/ADR-RES 68.2 µM | EKVX 33 µM | CCRF-CEM 47.2 µM | MCF7 37.8 µM | UACC-257 71.9 µM | SK-OV-3 36.9 µM | SR 21.2 µM | HT-29 54.5 µM | OVCAR-8 9.12 µM | RXF 393 35.2 µM

CCOC(=O)C(=O)N1C(C)=C(C(=O)OCC)CC(C(=O)OCC)=C1C
inactive: ACHN > 100 µM | KM12 > 100 µM | LOX IMVI > 100 µM | IGROV-1 > 100 µM | DU-145 > 100 µM | Hs-578T > 100 µM | PC-3 > 100 µM | SK-MEL-28 > 100 µM | EKVX > 100 µM | CCRF-CEM > 100 µM | MCF7 > 100 µM | MOLT-4 > 100 µM | UACC-257 > 100 µM | SK-OV-3 > 100 µM | SR > 100 µM | RXF 393 > 100 µM

CCCCCCN1C(=O)CC(=O)N(CCCCCC)S1(=O)=O
inactive: KM12 28.1 µM | LOX IMVI 13.6 µM | IGROV-1 12.4 µM | DU-145 65.8 µM | Hs-578T 22 µM | PC-3 23 µM | NCI/ADR-RES 21.7 µM | EKVX 20.8 µM | CCRF-CEM 21.7 µM | MCF7 36 µM | MOLT-4 23.3 µM | UACC-257 38.4 µM | SK-OV-3 21.8 µM | SR 26.9 µM | HT-29 21.6 µM | RXF 393 16.4 µM

CC(NC1=NCCO1)c1cccc([N+](=O)[O-])c1 (centres undefined)
inactive: ACHN > 100 µM | KM12 > 100 µM | LOX IMVI > 100 µM | IGROV-1 > 100 µM | DU-145 > 100 µM | Hs-578T > 100 µM | PC-3 > 100 µM | SK-MEL-28 > 100 µM | NCI/ADR-RES > 100 µM | EKVX > 100 µM | CCRF-CEM > 100 µM | MCF7 > 100 µM | MOLT-4 88.7 µM | UACC-257 > 100 µM | SK-OV-3 > 100 µM | SR > 100 µM | HT-29 > 100 µM | OVCAR-8 > 100 µM | RXF 393 > 100 µM

O=C(OC1C2OC(=O)c3cc(O)c(O)c(O)c3Oc3cc4c(c(O)c3O)-c3c(cc(O)c(O)c3O)C(=O)OCC3OC(O)C(OC(=O)c5cc(O)c(O)c(O)c5Oc5cc6c(c(O)c5O)-c5c(cc(O)c(O)c5O)C(=O)OC1C(COC6=O)OC2O)C(OC(=O)c1cc(O)c(O)c(O)c1)C3OC4=O)c1cc(O)c(O)c(O)c1 (centres undefined)
inactive: ACHN 38.9 µM | KM12 3.36 µM | LOX IMVI 17.9 µM | IGROV-1 40.2 µM | DU-145 41 µM | Hs-578T 32.3 µM | PC-3 20 µM | SK-MEL-28 76.7 µM | NCI/ADR-RES 58.2 µM | EKVX 12.5 µM | CCRF-CEM 3.61 µM | MCF7 50.7 µM | MOLT-4 3.46 µM | UACC-257 81.5 µM | SK-OV-3 12.5 µM | SR 4.61 µM | HT-29 17.9 µM | OVCAR-8 27 µM | RXF 393 21.9 µM

CCOC(=O)C12CCC(=O)N1N(C)c1ncccc1N2 (centres undefined)
inactive: ACHN > 100 µM | KM12 > 100 µM | LOX IMVI > 100 µM | IGROV-1 > 100 µM | DU-145 > 100 µM | SK-MEL-28 > 100 µM | NCI/ADR-RES > 100 µM | EKVX > 100 µM | CCRF-CEM > 100 µM | MCF7 > 100 µM | MOLT-4 > 100 µM | UACC-257 > 100 µM | SK-OV-3 > 100 µM | SR > 100 µM | HT-29 > 100 µM | BT-549 > 100 µM | OVCAR-8 > 100 µM | RXF 393 > 100 µM

C=C1CC2CC(=O)C(O)C(C1)C2 (centres undefined)
inactive: ACHN > 100 µM | KM12 > 100 µM | LOX IMVI > 100 µM | DU-145 > 100 µM | Hs-578T > 100 µM | NCI/ADR-RES > 100 µM | EKVX > 100 µM | CCRF-CEM > 100 µM | MCF7 > 100 µM | MOLT-4 > 100 µM | UACC-257 > 100 µM | SK-OV-3 > 100 µM | SR > 100 µM | HT-29 > 100 µM | OVCAR-8 > 100 µM | RXF 393 > 100 µM

CSc1n/c(=N\c2ccccc2)sn1-c1ccccc1
inactive: ACHN 18.9 µM | KM12 17.3 µM | LOX IMVI 16.6 µM | IGROV-1 4.65 µM | SK-MEL-28 14.1 µM | EKVX 27.5 µM | CCRF-CEM 11.2 µM | MOLT-4 11.2 µM | UACC-257 20.3 µM | SK-OV-3 36.6 µM | SR 17.8 µM | HT-29 3.52 µM | OVCAR-8 21.7 µM | RXF 393 16.8 µM
